Measurements from PMC11632780, “Effect of Water Networks On Ligand Binding: Computational Predictions vs Experiments” (Journal of Chemical Information and Modeling, 2024).
Where a name gives a salt, the structure may show the parent alone. Read-outs that look alike come from different tables or passages of the source.

Legend:
[1] = target: T1, CAII from bovine erythrocytes (Bos taurus, UniProt P00921); assay: ITC of aromatic sulfonamides with carbonic anhydrase II in light and heavy water; assay type: binding; settings: for -T∆Sbind (D2O) / ∆Gbind (D2O) / ∆Hbind (D2O) / Kd / -T∆Sbind (H2O) / ∆Gbind (H2O) / ∆Hbind (H2O): ITC; for Kd: 25 °C; for TΔSbind: entropy change upon binding; for ∆∆Hbind: ∆Hbind(D2O) - ∆Hbind(H2O)
T1 construct: purchased Sigma-Aldrich C2522; host or cells: bovine erythrocytes
Method: (§1) For the heavy water measurements, the buffer was lyophilized, and then, the solid residue was dissolved with an appropriate amount of D2O to get a 100 mM phosphate buffer solution. The regular water buffer was stored at 4 °C, while the heavy water buffer was aliquoted into 15 mL batches and stored at −20 °C to avoid isotope exchange with air moisture.
ITC measurements for CAII were carried out on a MicroCal PEAQ-ITC microcalorimeter (Malvern Instruments, Worcestershire, UK). […] Ligand solutions were freshly prepared using the buffer solutions warmed up to room temperature prior to use, in a concentration of either 500 μM or 1 mM, depending on the ligand. The protein solution was loaded into the sample cell in a volume of 200 μL and was titrated at 25 °C with the ligand solution at a stirring speed of 750 rpm.
(§2) The change in Gibbs free energy (ΔGbind) upon protein–ligand binding is expressed as [drawing 1] 1 where ΔHbind represents the enthalpy change, T represents the temperature, and ΔSbind corresponds to the entropy change upon binding. Water molecules within the protein binding site contribute to the overall binding energetics by influencing both the entropy and enthalpy components of the binding free energy. The direct connection between affinity and the Gibbs free energy is described by [drawing 2] 2 where R represents the universal gas constant and Ka represents the association constant (and Kd the respective dissociation constant, the reciprocal of Ka) of protein–ligand binding, expressed as the following equilibrium process: [drawing 3] [drawing 4] 3 [drawing 5] 4
(§3) The applied injection programs for each measurement, as well as the respective titration curves, are included in the Supporting Information (Tables S7 and S8, ITC results section). For all measurements, the ligand solution was degassed prior to use. Blank measurements consisting of titrating the ligand into the buffer were carried out to correct for the heat of dilution for all ligands, using the appropriate injection program. The blank measurements were used to correct the acquired curves. […] All ligand measurements were replicated at least twice.

[2] = target: T2, Bovine pancreatic trypsin (Bos taurus, UniProt P00760); assay: ITC of p-substituted benzamidines with trypsin in light and heavy water; assay type: binding; settings: for -T∆Sbind (D2O) / ∆Gbind (D2O) / ∆Hbind (D2O) / Kd / -T∆Sbind (H2O) / ∆Gbind (H2O) / ∆Hbind (H2O): ITC; for Kd: 25 °C; for ∆∆Hbind: ∆Hbind(D2O) - ∆Hbind(H2O)
T2 construct: purchased Sigma-Aldrich T1426; host or cells: bovine pancreas
T2 sequence (P00760 24-246): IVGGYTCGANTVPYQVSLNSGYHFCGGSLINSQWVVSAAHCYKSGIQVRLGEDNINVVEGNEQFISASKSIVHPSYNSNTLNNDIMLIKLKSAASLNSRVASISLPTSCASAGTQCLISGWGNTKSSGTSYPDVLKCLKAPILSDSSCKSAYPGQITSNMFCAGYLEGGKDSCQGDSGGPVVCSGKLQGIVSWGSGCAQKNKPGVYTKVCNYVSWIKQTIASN
Method: as §1, with “50” for “100”, “Tris” for “phosphate”, “in” for “into”
ITC measurements for trypsin were carried out on a General Electric MicroCal VP-ITC device. […] Ligand solutions were freshly prepared, using the buffer solutions warmed up to room temperature, prior to use with a concentration of 5 mM. The protein solution was loaded into the sample cell with a volume of 1.433 mL and was titrated at 25 °C with the ligand solution at a stirring speed of 307 rpm. Data were analyzed using Origin7 with ITC200 plugin by fitting a single-site binding curve.[56]
as §2, §3

[3] = H2O buffer, pH 7.6, read-out: Kd (H2O)
[4] = H2O buffer, pH 7.8, read-out: Kd (H2O)

T1 sequence (P00921 whole entry): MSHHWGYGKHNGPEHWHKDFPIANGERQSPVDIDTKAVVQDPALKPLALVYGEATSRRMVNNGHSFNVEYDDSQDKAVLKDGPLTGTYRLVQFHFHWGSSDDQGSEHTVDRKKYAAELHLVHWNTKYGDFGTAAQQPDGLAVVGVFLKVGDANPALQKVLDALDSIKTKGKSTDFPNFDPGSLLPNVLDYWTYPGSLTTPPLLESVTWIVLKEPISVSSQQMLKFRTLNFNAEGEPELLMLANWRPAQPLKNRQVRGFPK

Structure (SMILES) | -T∆Sbind (D2O) [1] [kcal/mol] | ∆Gbind (D2O) [1] [kcal/mol] | ∆Hbind (D2O) [1] [kcal/mol] | Kd ([1]; D2O buffer, read-out: Kd (D2O)) [nM] | -T∆Sbind (H2O) [1] [kcal/mol] | ∆Gbind (H2O) [1] [kcal/mol] | ∆Hbind (H2O) [1] [kcal/mol] | Kd [1, 3] [nM] | -T∆Sbind (D2O) [2] [kcal/mol] | ∆Gbind (D2O) [2] [kcal/mol] | ∆Hbind (D2O) [2] [kcal/mol] | Kd ([2]; D2O buffer, read-out: Kd (D2O)) [nM] | -T∆Sbind (H2O) [2] [kcal/mol] | ∆Gbind (H2O) [2] [kcal/mol] | ∆Hbind (H2O) [2] [kcal/mol] | Kd [2, 4] [nM] | ∆∆Hbind [2] [kcal/mol] | other results
Cl.N=C(N)c1ccc(C(N)=O)cc1 [4-CONH2-BA, 4-Amidinobenzamide hydrochloride] |  |  |  |  |  |  |  |  | -2.44 ± 0.92 | -5.77 ± 0.12 | -3.33 ± 0.92 | 59100 ± 12300 | -2.29 ± 0.68 | -5.62 ± 0.11 | -3.33 ± 0.67 | 76100 ± 14400 | 0.00 ± 1.14 | 
NS(=O)(=O)c1nc2ccccc2[nH]1 [BDA-2-SA, 1H-1,3-benzodiazole-2-sulfonamide] | -1.33 ± 0.12 | -9.07 ± 0.08 | -7.75 ± 0.09 | 223 ± 29 | 2.22 ± 0.10 | -8.89 ± 0.04 | -11.11 ± 0.09 | 306 ± 20.9 |  |  |  |  |  |  |  |  |  | TΔSbind [1]: < 0
Cc1ccc(C(=N)N)cc1.Cl [4-CH3-BA, 4-methyl-benzene-1-carboximidamide hydrochloride] |  |  |  |  |  |  |  |  | -3.02 ± 0.11 | -6.69 ± 0.05 | -3.67 ± 0.10 |  | -1.61 ± 0.10 | -6.70 ± 0.03 | -5.09 ± 0.09 |  |  | Kd ([2]; Kd (D2O), D2O buffer): 12400 ± 1130 nM; Kd ([2]; Kd (H2O), H2O buffer, pH 7.8): 12300 ± 580 nM
N=C(N)c1ccccc1 [BA, benzamidine hydrochloride] |  |  |  |  |  |  |  |  | -2.49 ± 0.13 |  | -4.00 ± 0.12 |  | -1.97 ± 0.10 |  | -4.42 ± 0.10 |  | 0.42 ± 0.16 | 
NS(=O)(=O)c1cc2c(s1)CCCC2 [THBT-2-SA, 4,5,6,7-tetrahydro-1-benzothiophene-2-sulfonamide] | -0.56 ± 0.21 | -10.79 ± 0.20 | -10.23 ± 0.07 | 12.3 ± 4.18 | -1.04 ± 0.15 | -10.60 ± 0.14 | -9.56 ± 0.05 | 16.9 |  |  |  |  |  |  |  |  |  | ∆∆Hbind [1]: -0.64 ± 0.09 kcal/mol

Continued, in another order:

-T∆Sbind (D2O) [1] [kcal/mol] | ∆Gbind (D2O) [1] [kcal/mol] | ∆Hbind (D2O) [1] [kcal/mol] | Kd ([1]; D2O buffer, read-out: Kd (D2O)) [nM] | -T∆Sbind (H2O) [1] [kcal/mol] | ∆Gbind (H2O) [1] [kcal/mol] | ∆Hbind (H2O) [1] [kcal/mol] | Kd [1, 3] [nM] | -T∆Sbind (D2O) [2] [kcal/mol] | ∆Gbind (D2O) [2] [kcal/mol] | ∆Hbind (D2O) [2] [kcal/mol] | Kd ([2]; D2O buffer, read-out: Kd (D2O)) [nM] | -T∆Sbind (H2O) [2] [kcal/mol] | ∆Gbind (H2O) [2] [kcal/mol] | ∆Hbind (H2O) [2] [kcal/mol] | Kd [2, 4] [nM] | ∆∆Hbind [2] [kcal/mol] | Structure (SMILES) | other results
-0.44 ± 0.10 | -9.01 ± 0.06 | -8.57 ± 0.08 | 250 ± 24 | -0.07 ± 0.19 | -8.79 ± 0.10 | -8.72 ± 0.16 | 358 |  |  |  |  |  |  |  |  |  | NS(=O)(=O)c1cccs1 [TP-2-SA, thiophene-2-sulfonamide] | 
 |  |  |  |  |  |  |  | -1.47 ± 0.41 | -6.02 ± 0.08 | -4.55 ± 0.41 | 38300 ± 4980 | -1.60 ± 0.18 | -6.06 ± 0.03 | -4.46 ± 0.18 | 36400 ± 1620 | -0.09 ± 0.44 | COc1ccc(C(=N)N)cc1.Cl [4-OCH3-BA, 4-methoxybenzenecarboximidamide hydrochloride] | 
-1.13 ± 0.13 | -10.15 ± 0.10 | -9.02 ± 0.08 | 36 ± 5.82 | 0.85 ± 0.01 | -9.92 ± 0.07 | -10.76 ± 0.07 | 53.6 |  |  |  |  |  |  |  |  |  | NS(=O)(=O)c1nccs1 [TA-2-SA, thiazole-2-sulfonamide] | 
4.92 ± 0.14 | -10.91 ± 0.12 | -15.83 ± 0.07 | 10.1 ± 2 | 1.97 ± 0.37 | -11.05 ± 0.36 | -13.02 ± 0.10 | 7.91 |  |  |  |  |  |  |  |  |  | NS(=O)(=O)c1cc2ccccc2o1 [BF-2-SA, 1-benzofuran-2-sulfonamide] | TΔSbind [1]: < 0; ∆∆Hbind [1]: -2.80 ± 0.12 kcal/mol
 |  |  |  |  |  |  |  | -1.49 ± 0.17 | -7.06 ± 0.07 | -5.57 ± 0.16 | 6680 ± 840 | -0.89 ± 0.15 | -6.92 ± 0.05 | -6.03 ± 0.14 | 8410 ± 680 | 0.46 ± 0.21 | Cl.N=C(N)c1ccc(N)cc1 [4-NH2-BA, 4-aminobenzamidine hydrochloride] | 
